Test results taken from paper PMC9233675, “Ru(II) photocages enable precise control over enzyme activity with red light” (Nature Communications, 2022).
pIC50: −log10 of the molar value. Values joined by “and” are separate entries in the source; they are usually repeats but may differ in a detail not shown here. Equal values may be shown once. Read-outs that look alike come from different tables or passages of the source.

Legend:
CYP1A1 = target: T1, CYP1A1 (Homo sapiens, UniProt P04798); test: In cell activity assay for CYP1A1 (7-ethoxyresorufin conversion, HEK293 T-Rex cells); details: for % Enzyme Activity: CYP1A1, dark; for SI (1B1:1A1): ratio of IC50 CYP1A1 to CYP1B1, for complexes 4–6 the IC50 (light) values were used; for pIC50: REE
T1 sequence (P04798 1-512): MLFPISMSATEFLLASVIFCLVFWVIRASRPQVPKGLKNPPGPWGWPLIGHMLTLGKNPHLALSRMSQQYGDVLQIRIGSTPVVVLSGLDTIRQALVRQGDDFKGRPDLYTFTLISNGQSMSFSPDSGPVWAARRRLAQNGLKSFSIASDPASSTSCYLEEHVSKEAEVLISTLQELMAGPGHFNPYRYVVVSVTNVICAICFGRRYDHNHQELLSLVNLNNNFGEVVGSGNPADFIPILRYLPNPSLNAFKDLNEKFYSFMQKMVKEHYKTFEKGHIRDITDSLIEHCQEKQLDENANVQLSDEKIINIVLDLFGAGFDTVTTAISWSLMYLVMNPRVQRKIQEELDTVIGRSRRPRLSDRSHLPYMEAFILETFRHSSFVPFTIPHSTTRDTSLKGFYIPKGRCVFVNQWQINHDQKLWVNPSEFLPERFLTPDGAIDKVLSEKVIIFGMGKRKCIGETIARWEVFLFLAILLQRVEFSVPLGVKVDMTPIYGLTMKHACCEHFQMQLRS
Text: A stable HEK cell line was created with CYP1B1 expression under the control of tetracycline to facilitate regulated and titratable expression (see the Methods section for more details). A cell line was also created for CYP1A1 as a counter screen to evaluate selectivity. […] The fluorogenic substrate, 7-ethoxyresorufin (REE), is a validated substrate for both CYPs and was used in both assays. Cytochrome P450 oxidoreductase (POR) is the required reductase partner for CYPs, and was also overexpressed in these systems to improve catalytic efficiency and the resulting signal for the assay.
Both the CYP and POR expression was under the control of the TetO2 inducible CMV promoter[26].
(§1) Cell lines were generated in the HEK293 T-Rex cell line. Following transfection, cells were selected with 500 μg/mL Zeocin, and 7.5 μg/mL Blasticidin to create a stable pool. Inducible expression of CYP and POR was confirmed by immunoblot. […] The lines were maintained with 250 μg/mL Zeocin and 7.5 μg/mL Blasticidin to ensure continued selective pressure.
(§2) Cell lines were seeded onto Geltrex coated 96-well plates at 40,000 cells/well, and grown overnight in DMEM media containing 1 μg/mL tetracycline. The media was then replaced with Opti-MEM supplemented with 2% FBS and 1 μg/mL tetracycline. Compounds were serially diluted in Opti-MEM supplemented with 2% FBS and 1 μg/mL tetracycline and an equal volume of compound added to the cells (n = 3). Following a 1 h incubation, resorufin ethyl ether (REE; for CYP1B1 and 1A1) or dibenzylfluorescein (DBF; for 19A1) was added to the cells for a total concentration of 5 μM for REE and 1 μM for DBF. […] Dose–response curves were generated in Prism and normalized using the no-compound control (set as 100% activity) and the no-cell control (set as 0% activity; this value in the raw data reflects the background fluorescence of the dye alone).
(§3) For the light-activated compounds, the experiment was modified as follows: Cells were seeded and grown overnight as described above. Media was replaced with L-15 containing 1 μg/mL tetracycline; L-15 media was used in place of opti-MEM™ to maintain CO2 outside the incubator, and to prevent cellular damage from light. Compounds were serially diluted in L-15 with 1 μg/mL tetracycline and added to the cells followed by a 1 h incubation. […] REE or DBF was added as described above.

CYP19A1 = target: T2, CYP19A1 (Homo sapiens, UniProt P11511); test: In cell activity assay for CYP19A1 (dibenzylfluorescein conversion, HEK293 T-Rex cells); assay type: cell-based; details: for % Enzyme Activity: CYP19A1, dark; for SI (1B1:19A1): ratio of IC50 CYP19A1 to CYP1B1, for complexes 4–6 IC50 (light)
T2 sequence (P11511 1-503): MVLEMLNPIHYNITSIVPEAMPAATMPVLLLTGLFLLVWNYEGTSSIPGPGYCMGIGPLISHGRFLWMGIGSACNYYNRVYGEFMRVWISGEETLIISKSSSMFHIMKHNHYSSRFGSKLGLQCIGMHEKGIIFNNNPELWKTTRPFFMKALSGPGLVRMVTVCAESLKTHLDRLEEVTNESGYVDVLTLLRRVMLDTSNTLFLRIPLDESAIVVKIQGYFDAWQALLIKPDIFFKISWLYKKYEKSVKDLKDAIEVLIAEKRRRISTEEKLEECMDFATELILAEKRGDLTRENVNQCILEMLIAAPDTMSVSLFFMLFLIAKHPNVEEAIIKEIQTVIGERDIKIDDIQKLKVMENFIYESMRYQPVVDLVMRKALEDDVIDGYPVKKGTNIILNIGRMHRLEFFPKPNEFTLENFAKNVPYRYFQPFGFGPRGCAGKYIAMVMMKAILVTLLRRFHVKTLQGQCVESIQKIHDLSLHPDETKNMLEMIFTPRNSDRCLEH
Experimental: Thus, the activity against CYP19A1 was evaluated using a recently developed in-cell fluorometric assay.
REE or DBF was added as described above.

CYP1B1 = target: T3, CYP1B1 (Homo sapiens, UniProt Q16678); test: In cell activity assay for CYP1B1 (7-ethoxyresorufin conversion, HEK293 T-Rex cells); details: for % Enzyme Activity red light / % Enzyme Activity: CYP1B1; for % Enzyme Activity red light: 660 nm light (58.7 J/cm2); for % Enzyme Activity: dark; for pIC50: n = 3
T3 sequence (Q16678 1-543): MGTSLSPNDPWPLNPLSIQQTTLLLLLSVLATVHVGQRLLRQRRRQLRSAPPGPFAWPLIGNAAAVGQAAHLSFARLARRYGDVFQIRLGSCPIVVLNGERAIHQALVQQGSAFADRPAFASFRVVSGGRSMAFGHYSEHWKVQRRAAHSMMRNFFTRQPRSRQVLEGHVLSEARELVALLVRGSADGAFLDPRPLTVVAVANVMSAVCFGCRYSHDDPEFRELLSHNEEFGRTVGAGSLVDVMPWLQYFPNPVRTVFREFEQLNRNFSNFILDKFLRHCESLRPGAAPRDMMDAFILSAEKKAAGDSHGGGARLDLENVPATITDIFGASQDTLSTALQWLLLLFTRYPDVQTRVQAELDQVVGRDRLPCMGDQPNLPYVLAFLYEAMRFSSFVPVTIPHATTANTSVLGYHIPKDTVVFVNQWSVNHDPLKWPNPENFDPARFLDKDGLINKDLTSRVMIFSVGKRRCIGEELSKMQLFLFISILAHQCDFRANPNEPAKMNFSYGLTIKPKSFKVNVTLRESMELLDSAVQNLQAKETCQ
Text: To rigorously assess the activity of inhibitors under biologically relevant conditions, an assay was developed for screening of CYP1B1 activity in live cells.
A stable HEK cell line was created with CYP1B1 expression under the control of tetracycline to facilitate regulated and titratable expression (see the Methods section for more details). […] The fluorogenic substrate, 7-ethoxyresorufin (REE), is a validated substrate for both CYPs and was used in both assays. Cytochrome P450 oxidoreductase (POR) is the required reductase partner for CYPs, and was also overexpressed in these systems to improve catalytic efficiency and the resulting signal for the assay.
as §1, §2, §3

[1] = read-out: IC50 CYP1A1 Dark, Dark, n = 3
[2] = read-out: IC50 CYP1A1 Light, Light: 660 nm, 58.7 J/cm^2
[3] = Dark, conversion of dibenzylfluorescein (DBF), read-out: IC50 CYP19A1 Dark
[4] = Light: 660 nm, 58.7 J/cm^2, DBF, read-out: IC50 CYP19A1 Light
[5] = read-out: IC50 CYP1B1 Dark, Dark, conversion of 7-ethoxyresorufin (REE)
[6] = read-out: IC50 CYP1B1 Light, Light: 660 nm, 58.7 J/cm^2, REE
[7] = at concentrations ≥10 μM (so in the source)

## COc1ccc(/C=C/c2cc[n+]([Ru-4]345([n+]6ccccc6-c6cccc([n+]63)-c3cccc[n+]34)[n+]3c(cc(C(=O)[O-])c4ccccc43)-c3cc(C(=O)[O-])c4ccccc4[n+]35)cc2)c(OC)c1 [Compound 6]
CYP1A1; Log Conc 0.39794
  % Enzyme Activity: 91.0522% and 92.8898%
CYP1A1; Log Conc 1
  % Enzyme Activity: 101.782% and 110.804%
CYP1A1; Log Conc -0.20412
  % Enzyme Activity: 95.4892% and 97.456%
CYP1A1; Log Conc -0.80618
  % Enzyme Activity: 104.418% and 113.985%
CYP1A1; Log Conc -1.40824
  % Enzyme Activity: 109.608% and 108.283%
CYP1A1; Log Conc -2.0103
  % Enzyme Activity: 108.509% and 109.086%
CYP1A1; Log Conc -2.61236
  % Enzyme Activity: 100.346% and 103.098%
CYP1A1; Log Conc -3.21442
  % Enzyme Activity: 102.096% and 97.9039%
CYP1A1
  SI (1B1:1A1): >100,000
CYP1A1; [1]
  pIC50: < 4.52
CYP1A1; [2]
  pIC50: < 4.52
CYP19A1; Log Conc 0.045757
  % Enzyme Activity: 105.406% and 101.538% and 104.022%
CYP19A1; Log Conc 0.522879
  % Enzyme Activity: 104.302% and 98.6869% and 100.038%
CYP19A1; Log Conc 1
  % Enzyme Activity: 98.3957% and 97.4287% and 99.555%
CYP19A1; Log Conc 1.47712
  % Enzyme Activity: 84.792% and 87.3743% and 76.9903%
CYP19A1; Log Conc -0.43136
  % Enzyme Activity: 108.571% and 102.071% and 105.115%
CYP19A1; Log Conc -0.90849
  % Enzyme Activity: 106.835% and 107.302% and 104.318%
CYP19A1; Log Conc -1.38561
  % Enzyme Activity: 104.082% and 105.269% and 104.335%
CYP19A1; Log Conc -1.86273
  % Enzyme Activity: 107.692% and 92.0059% and 100.302%
CYP19A1; [3]
  pIC50: < 4.52
CYP19A1; [4]
  pIC50: 4.72
CYP19A1
  SI (1B1:19A1): 62,800
CYP1B1; Log Conc 0.39794
  % Enzyme Activity red light: -2.704% and -2.565%
  % Enzyme Activity: 37.9328% and 31.3874%
CYP1B1; Log Conc 1
  % Enzyme Activity red light: -2.451% and -1.971%
  % Enzyme Activity: -5.282% and -4.5489%
CYP1B1; Log Conc -0.20412
  % Enzyme Activity red light: -2.413% and -1.554%
  % Enzyme Activity: 83.1691% and 81.3495%
CYP1B1; Log Conc -0.80618
  % Enzyme Activity red light: -1.314% and -2.085%
  % Enzyme Activity: 99.722% and 104.043%
CYP1B1; Log Conc -1.40824
  % Enzyme Activity red light: -2.274% and -3.677%
  % Enzyme Activity: 109.148% and 104.422%
CYP1B1; Log Conc -2.0103
  % Enzyme Activity red light: 1.567% and 0.556%
  % Enzyme Activity: 132.424% and 133.005%
CYP1B1; Log Conc -2.61236
  % Enzyme Activity red light: 27.0407% and 26.6869%
  % Enzyme Activity: 99.1913% and 124.791%
CYP1B1; Log Conc -3.21442
  % Enzyme Activity red light: 48.2689% and 41.5972%
  % Enzyme Activity: 127.496% and 122.416%
CYP1B1; Log Conc -3.81648
  % Enzyme Activity red light: 59.7422% and 63.5835%
  % Enzyme Activity: 106.293% and 106.621%
CYP1B1; Log Conc -4.41854
  % Enzyme Activity red light: 78.0389% and 65.5042%
  % Enzyme Activity: 105.939% and 103.083%
CYP1B1; Log Conc -5.0206
  % Enzyme Activity red light: 106.495% and 94.3139%
  % Enzyme Activity: 100.606% and 105.459%
CYP1B1; Log Conc -5.62266
  % Enzyme Activity red light: 87.0104% and 112.181%
  % Enzyme Activity: 101.365% and 96.184%
CYP1B1; [5]
  pIC50: 5.72
CYP1B1; [6]
  pIC50: 9.52

## COc1ccc(/C=C/c2cc[n+]([Ru-4]345([n+]6ccccc6-c6cccc([n+]63)-c3cccc[n+]34)[n+]3c(cc(C(=O)[O-])c4ccccc43)-c3cc(C(=O)[O-])c4ccccc4[n+]35)cn2)c(OC)c1 [Compound 5]
CYP1A1; [7]
  impact on CYP1A1: no impact
CYP1A1
  SI (1B1:1A1): 460
CYP1A1; [1]
  pIC50: 4.39
CYP1A1; [2]
  pIC50: 5.11
CYP19A1; [3]
  pIC50: 4.55
CYP19A1; [4]
  pIC50: 4.95
CYP19A1; [7]
  impact on CYP19A1: no impact
CYP19A1
  SI (1B1:19A1): 660
CYP1B1; [5]
  pIC50: 5.76
CYP1B1; [6]
  pIC50: 7.77
